# Experimental data: patent EP1954678B1, “NOVEL NK1 AND NK2 ANTAGONISTS” (Abbott Products GmbH, priority 2005, dated 2007)
# Where two headings read alike, the source gives them in different places.
# Assays:
# human NK2 receptors = biological target: T1, human NK2 receptors (Homo sapiens, UniProt P21452); assay: Binding of the test substances to NK2 receptors in vitro ([3H]-SR 48968 displacement, CHO cell membranes); conditions: [3H]-SR 48968 as ligand; membranes of CHO cells expressing the human NK2 receptor; 90 min incubation; Ki calculated from IC50; read-out: pKi (NK2) (converted)
# T1 construct: expressed in transfected cells; host or cells: CHO cells (membrane preparation)
# T1 sequence (P21452 1-398): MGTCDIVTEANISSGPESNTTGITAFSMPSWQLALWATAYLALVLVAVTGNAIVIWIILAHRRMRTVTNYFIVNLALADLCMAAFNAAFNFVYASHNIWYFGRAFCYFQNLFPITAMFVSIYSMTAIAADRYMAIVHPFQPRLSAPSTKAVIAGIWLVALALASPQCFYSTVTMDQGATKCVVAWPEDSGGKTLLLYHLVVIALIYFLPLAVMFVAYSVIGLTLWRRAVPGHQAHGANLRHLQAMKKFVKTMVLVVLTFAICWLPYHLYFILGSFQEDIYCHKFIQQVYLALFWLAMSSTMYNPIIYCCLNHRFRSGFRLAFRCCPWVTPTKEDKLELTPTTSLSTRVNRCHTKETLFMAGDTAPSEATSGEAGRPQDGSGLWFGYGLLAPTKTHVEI
# Description: The affinity of the test substances to human NK2 receptors was measured in vitro. The ability of the test substances to displace the selective NK2 receptor antagonist SR 48968 (= saredutant) used as reference ligand from its corresponding bond was determined.
# The receptor binding studies were carried out with radioactively marked [^3H]-SR 48968 (from Amersham) as ligand. For the binding test, different samples of a membrane preparation of CHO cells (= egg cells of the Chinese hamster, Chinese hamster oocytes), which express the human NK2 receptor (for preparation, see N.P. Gerard et al., Journal of Biological Chemistry 265/33 (1990) 20455-20462), were incubated for 90 minutes (= min.) with a solution of the marked ligand, with the incubation mixtures containing no test substance or additions of different concentrations of test substance. Then in each case the membrane-bound ligands in the samples were separated from free ligands by filtration. The fraction remaining in the filter was washed several times with buffer solution, before its radioactivity was measured using a liquid scintillation counter. That concentration which effects half-maximum displacement of the bound reference ligand was determined as IC50 of the respective test substance. The inhibition constant (Ki value) of the test substance was calculated from the respective IC50 value, and was stated as the negative logarithmised value thereof (pKi).
# If several measurements were performed, the average thereof was listed each time. The pKi value is a measurement of the affinity of the test substances to human NK2 receptors.
# NK2 receptors [1] = biological target: T2, NK2 receptors (Cavia porcellus, UniProt Q64077); assay: Functional NK2 antagonism on isolated guinea pig gall-bladder preparations (NKA induced contraction); parameters: from tissue; host or cells: guinea pig gall-bladder preparations; species or system Pirbright-White guinea pigs
# T2 sequence (Q64077 1-402): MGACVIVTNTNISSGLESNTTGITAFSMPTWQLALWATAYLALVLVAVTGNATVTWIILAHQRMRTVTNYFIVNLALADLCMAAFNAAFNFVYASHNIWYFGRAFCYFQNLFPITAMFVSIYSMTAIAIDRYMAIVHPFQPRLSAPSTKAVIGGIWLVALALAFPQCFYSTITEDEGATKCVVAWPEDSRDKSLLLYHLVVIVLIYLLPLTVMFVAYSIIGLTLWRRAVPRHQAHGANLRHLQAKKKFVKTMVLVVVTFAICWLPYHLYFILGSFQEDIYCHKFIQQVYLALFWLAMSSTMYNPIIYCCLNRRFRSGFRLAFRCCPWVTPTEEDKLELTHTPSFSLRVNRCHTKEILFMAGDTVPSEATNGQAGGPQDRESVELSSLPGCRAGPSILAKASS
# Description: The NK2 receptor-antagonising action of the test substances was determined on isolated gall-bladder preparations from Pirbright-White guinea pigs, held in an oxygen-saturated nutrient solution. To this end, the preparations were fastened on one hand in the nutrient solution to organ holders and on the other hand on a force meter by a thread.
# The concentration of the test substances was increased iteratively in the subsequent experiments as a function of the result in logarithmic whole or half steps, until at least one concentration above or below 50% inhibition of contraction was determined (up to at most 10^-5 mol/l). For each concentration, the average value of inhibition of contraction was calculated from 2 to 4 preparations. In each case, the concentration of half-maximum inhibition (IC50) per test substance was calculated as characteristic variable.
# NK1 receptors = NK1 receptors (Cavia porcellus, UniProt P30547); assay: NK-1-receptor-antagonistic effectiveness in vivo in anaesthetised guinea pigs (NKA test stimulus, early hypotension); parameters: from tissue; host or cells: whole anaesthetised guinea pig (in vivo); species or system Pirbright-White guinea pigs; conditions: for ED50: guinea pig; for oral activity as NK1 receptor antagonist: result in words, oral administration
# NK1 receptors, sequence (P30547 whole entry): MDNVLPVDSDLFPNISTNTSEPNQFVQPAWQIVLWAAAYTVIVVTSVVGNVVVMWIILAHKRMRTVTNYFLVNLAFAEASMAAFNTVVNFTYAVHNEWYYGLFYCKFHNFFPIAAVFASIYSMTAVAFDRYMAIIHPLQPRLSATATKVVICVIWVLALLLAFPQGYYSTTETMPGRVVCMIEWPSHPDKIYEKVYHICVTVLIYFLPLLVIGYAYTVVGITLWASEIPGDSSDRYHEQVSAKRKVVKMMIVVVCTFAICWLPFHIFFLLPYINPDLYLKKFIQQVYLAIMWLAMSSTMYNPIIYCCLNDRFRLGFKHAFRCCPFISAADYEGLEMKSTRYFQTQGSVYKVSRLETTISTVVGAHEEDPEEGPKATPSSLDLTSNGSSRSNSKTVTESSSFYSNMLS
# Description: (§1) The NK-1- and NK-2-antagonistic activities of the test substances were investigated in anaesthetised guinea pigs in each case after intravenous (= i.v.) and oral (= p.o.) administration in vivo. With the present test model it is possible to detect both NK-2-antagonistic effects in three different organ systems (respiratory tracts, colon and circulation) and NK-1-antagonistic effects (rapid drop in blood pressure) in an animal simultaneously.
# (§2) Pirbright-White guinea pigs of a body weight of 500-700 g were anaesthetised with ketamine/xylazine (67/13 mg/kg subcutaneously, initial dose, further doses administered as required). The animals were provided with an intravenous catheter in order to administer the substance and an intra-arterial catheter to measure the blood pressure. The animals were artificially ventilated via a tracheal cannula and the respiratory pressure was recorded by means of a pressure transducer. A balloon was introduced into the distal colon of the animals for manometric recording of colon motility by means of a pressure transducer. Blood pressure, heart rate, respiratory pressure and colonic pressure were measured continuously for each animal and plotted on a recorder and by means of a digital data-processing system. […] The second phase of delayed hypotension (= phase of maximum hypotension after 2-5 min.) on the other hand is mediated via NK-2 receptors, since they can be blocked by specific NK-2 receptor antagonists. […] Table 6: NK-1- and NK-2-receptor-antagonistic effective-ness of the test substances of Formula I on guinea pigs in vivo after intravenous administration
# (§3) These ED50 values obtained from cumulative dose effect curves are plotted in table 6.
# (§4) The antagonistic effects of the test substances were then determined as "area under the curve" ("AUC") over the investigation period after administration of the test substances (1 - 180 min after administration) and the ED50 values after oral administration obtained therefrom were plotted in table 7. Table 7: NK-1- and NK-2-receptor-antagonistic effective-ness of the test substances of Formula I on guinea pigs in vivo after oral administration
# NK2 receptors [2] = biological target: T2, NK2 receptors; assay: NK-2-receptor-antagonistic effectiveness in vivo in anaesthetised guinea pigs (NKA test stimulus: late hypotension, bronchoconstriction, colonic pressure); parameters: from tissue; host or cells: whole anaesthetised guinea pig (in vivo); species or system Pirbright-White guinea pigs; conditions: for ED50: guinea pig; for oral activity as NK2 receptor antagonist: result in words, oral administration
# Description: as §1, §2, §3, §4
# [3] = iv, read-out: ED50 iv after 1 min (cumulative) NK1 (early hypotension)
# [4] = oral, from AUC of antagonistic effect 1 - 180 min after administration, read-out: ED50 AUC1-180 min oral NK1 (early hypotension)
# [5] = iv, read-out: ED50 iv after 1 min (cumulative) NK2 (broncho-constriction)
# [6] = iv, read-out: ED50 iv after 1 min (cumulative) NK2 (colonic motility)
# [7] = iv, read-out: ED50 iv after 1 min (cumulative) NK2 (late hypotension)
# [8] = oral, from AUC of antagonistic effect 1 - 180 min after administration, read-out: ED50 AUC1-180 min oral NK2 (broncho-constriction)
# [9] = oral, from AUC of antagonistic effect 1 - 180 min after administration, read-out: ED50 AUC1-180 min oral NK2 (colonic motility)
# [10] = oral, from AUC of antagonistic effect 1 - 180 min after administration, read-out: ED50 AUC1-180 min oral NK2 (late hypotension)
SMILES,Ki (human NK2 receptors) [nM],IC50 (NK2 receptors [1]) [nM],ED50 (NK1 receptors; [3]) [µmol/kg],ED50 (NK1 receptors; [4]) [µmol/kg],oral activity as NK1 receptor antagonist (NK1 receptors),ED50 (NK2 receptors [2]; [5]) [µmol/kg],ED50 (NK2 receptors [2]; [6]) [µmol/kg],ED50 (NK2 receptors [2]; [7]) [µmol/kg],ED50 (NK2 receptors [2]; [8]) [µmol/kg],ED50 (NK2 receptors [2]; [9]) [µmol/kg],ED50 (NK2 receptors [2]; [10]) [µmol/kg],oral activity as NK2 receptor antagonist (NK2 receptors [2])
"CN(C[C@@H](CCN1CCN([C@@H](c2ccco2)[C@H](O)[C@@H](O)[C@H](O)CO)CC1)c1ccc(Cl)c(Cl)c1)C(=O)c1cc(C#N)cc2ccccc12 [Compound 2, 3-cyano-N-[(2S)-2-(3,4-dichlorophenyl)-4-{4-[(1R,2S,3R,4R)-1-(2-furyl)-2,3,4,5-tetrahydroxypentyl]piperazin-1-yl}butyl]-N-methyl-1-naphthamide]",79.4,20,< 0.01,15.2,active orally,< 0.01,0.085,0.106,11.7,6,14.8,active orally
"CN(C[C@@H](CCN1CCN([C@@H](c2ccco2)[C@H](O)CO)CC1)c1ccc(Cl)c(Cl)c1)C(=O)c1cc(C#N)cc2ccccc12 [Compound 1, 3-cyano-N-[(2S)-2-(3,4-dichlorophenyl)-4-{4-[(1R,2S)-1-(2-furyl)-2,3-dihydroxypropyl]piperazin-1-yl}butyl]-N-methyl-1-naphthamide]",7.94,2,0.077,22.9,active orally,0.321,0.027,0.643,3.1,5.5,3.1,active orally
"CN(C[C@@H](CCN1CCN(C(CO)(CO)c2ccco2)CC1)c1ccc(Cl)c(Cl)c1)C(=O)c1cc(C#N)cc2ccccc12 [Compound 6, 3-cyano-N-[(2S)-2-(3,4-dichlorophenyl)-4-{4-[1-(2-furyl)-2-hydroxy-1-(hydroxymethyl)ethyl]piperazin-1-yl}butyl]-N-methyl-1-naphthamide]",39.8,39.8,0.071,,,0.595,0.05,0.282,,,,
"CN(C[C@@H](CCN1CCN([C@@H](c2ccco2)[C@H]2COC(=O)O2)CC1)c1ccc(Cl)c(Cl)c1)C(=O)c1cc(C#N)cc2ccccc12 [Compound 11, 3-cya no-N-[(2S)-2-(3,4-dichlorophenyl)-4-(4-{(R)-2-furyl[(4S)-2-oxo-1,3-dioxolan-4-yl]methyl}piperazin-1-yl)butyl]-N-methyl-1-naphthamide]",25.1,15.8,0.093,,,0.13,0.132,0.145,,,,
